The results in this text go back to patent publication US12465648B2, “Heterobifunctional compounds as degraders of HPK1” (ICAHN SCHOOL OF MEDICINE AT MOUNT SINAI, priority 2019, dated 2025).

Assay [1] deals with T1, HPK1 (Homo sapiens, UniProt Q92918).
T1 construct: endogenous in cells; host or cells: Jurkat T cells
Kind of assay: Western blot analysis of endogenous HPK1 level in Jurkat T cells. It is filed as cell-based. A general note: In western blotting, separated proteins are transferred to a membrane and probed.

Another assay deals with primary GFP+ Tregs. Kind of assay: IL-2 production by primary GFP+ Tregs in response to TCR engagement. It is filed as cell-based. The following applies: stimulation by TCR engagement (FIG. 7).
The target in assay [2] is T2, HPK1 (Mus musculus, UniProt P70218).
T2 construct: HPK1 degraders could effectively degrade endogenous HPK1 in murine T cells; endogenous in cells; host or cells: primary mouse T cells
T2 sequence (P70218 1-827): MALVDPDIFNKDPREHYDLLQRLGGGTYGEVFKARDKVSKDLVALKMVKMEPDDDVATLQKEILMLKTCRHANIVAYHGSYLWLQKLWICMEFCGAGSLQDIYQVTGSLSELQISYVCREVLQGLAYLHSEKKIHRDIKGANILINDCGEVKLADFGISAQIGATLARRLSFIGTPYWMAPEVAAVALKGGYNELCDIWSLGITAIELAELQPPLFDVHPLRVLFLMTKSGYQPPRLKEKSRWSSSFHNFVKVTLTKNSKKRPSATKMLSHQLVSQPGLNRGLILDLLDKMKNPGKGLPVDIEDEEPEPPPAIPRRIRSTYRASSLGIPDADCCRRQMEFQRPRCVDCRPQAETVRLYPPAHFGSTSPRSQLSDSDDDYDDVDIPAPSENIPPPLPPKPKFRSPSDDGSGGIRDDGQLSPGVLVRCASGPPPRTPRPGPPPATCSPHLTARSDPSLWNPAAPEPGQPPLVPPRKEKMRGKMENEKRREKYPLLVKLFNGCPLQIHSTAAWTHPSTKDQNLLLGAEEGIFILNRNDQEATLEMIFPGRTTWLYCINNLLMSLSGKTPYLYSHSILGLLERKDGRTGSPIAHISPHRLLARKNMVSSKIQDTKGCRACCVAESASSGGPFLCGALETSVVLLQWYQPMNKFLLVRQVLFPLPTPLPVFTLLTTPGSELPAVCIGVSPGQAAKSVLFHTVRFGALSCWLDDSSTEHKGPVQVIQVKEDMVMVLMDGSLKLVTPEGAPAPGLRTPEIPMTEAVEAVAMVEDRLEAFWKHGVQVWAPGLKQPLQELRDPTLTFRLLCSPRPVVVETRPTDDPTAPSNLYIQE
In words: HPK1 degradation in primary mouse T cells. Format: cell-based. The following applies: 300 nM. How it is done: (§1) EXAMPLE 348. Several compounds according to the present invention employing the indolin-2-one HPK1 binding base, (which henceforth shall be referred to as the HC58 series, the HC65 series and the HC75 series) were assessed on their abilities to degrade HPK1 and produce an elevated IL-2 response profile upon stimulation by anti-CD3- and anti-CD28-mAb-mediated (CD3XCD28) stimulation (FIGS. 1-4). The elevated IL-2 response profile induced by TCR engagement after exposure to HC58 series of HPK1 degraders is shown in FIG. 1. […] A select sub-set of the lead HPK1 degraders from the HC58 series were further characterized to determine whether they could degrade primary mouse T cells.
EXAMPLE 353. HPK1 is expressed in all hematopoietic cells examined to date, including T cells, B cells, dendritic cells and neutrophils. Because the breath of therapeutic approaches might involve the use of Chimeric Antigen Receptor (CAR) T cells, dendritic cells, TCR transgenic T cells and Tumor Infiltrating Lymphocytes (TILs), selected HPK1 degraders were evaluated to determine whether they could degrade HPK1 effectively in some of these cell types. […] Potent degradation of HPK1 by HPK1 degraders was also observed in the human DC1 dendritic cells.

The test system of assay [3] is primary murine T cells. Kind of assay: IL-2 production by primary murine T cells. Format: cell-based, mouse. On the procedure:
as §1

Assay [4] has as its system primary murine T cells. In words: Proliferation of primary murine T cells. Format: cell-based, mouse. How it is done:
as §1

In the next assay the test system is CD4+eGFP+ Tregs. In words: IL-2 production by regulatory T cells (Tregs) on CD3XCD28 stimulation (IL-2 ELISA). It is filed as cell-based, mouse. Conditions: compared with HPK1-/- Tregs. An excerpt:
EXAMPLE 350. It was observed that HPK1^−/− regulatory T cells (Treg), unlike their wild type counterparts, could readily produce IL-2 in response to CD3XCD28 stimulation. Taking advantage of the FoxP3-driven eGFP reporter mice that express eGFP only in the FoxP3^+ regulatory T cells (Tregs), bonafide Tregs were purified from spleens and lymph nodes by FACS-assisted sorting of CD4^+eGFP^+ Tregs and used as the source of ex vivo functional studies. The ability of the wild type Treg, the HPK1^−/− Tregs and the HC58-78-treated wild type Tregs to produce IL-2 in response to CD3XCD28 stimulation was compared. […] Wild type regulatory T cells could not produce the IL-2 in response to the same stimulation due to the transcriptional repression of the IL-2 locus by the FoxP3 transcription factor (FIG. 7, the white histogram bar).
A general note: An ELISA detects its analyte on a solid surface through an enzyme-linked reagent.

The test system of the next assay is human PBMCs. Kind of assay: Intracellular IFNγ and TNFα staining of human PBMC (FACS). Format: cell-based. The following applies: in combination with blinatumomab. An excerpt:
EXAMPLE 355. One of the mechanisms employed by PBMC to kill their target cells is by releasing IFNγ and TNFα production. These inflammatory cytokines are known have potent cytolytic effects on cancer cells. […] Mediated PBMC killing of the Raji cells is most evident at PBMC:Raji ratio of 5:1 (FIG. 13).
To determine the number of CD19^+ Raji cells killed by human PBMC that were activated by the Blinatumomab-mediated activation, we used CountBright cell counting beads to estimate the number of cells remained after 72 hours of co-culturing of PBMC and Raji. As for the intracellular staining of the TNFα and the IFNγ, the standard para-formaldehyde-based “fix and perm” procedure was used in order to quantitate the amount of intracellular cytokine trapped inside the cells by brefeldin A. FACS analysis of stained cells is performed by BD's LSR II FACS.

T1 sequence (Q92918 whole entry): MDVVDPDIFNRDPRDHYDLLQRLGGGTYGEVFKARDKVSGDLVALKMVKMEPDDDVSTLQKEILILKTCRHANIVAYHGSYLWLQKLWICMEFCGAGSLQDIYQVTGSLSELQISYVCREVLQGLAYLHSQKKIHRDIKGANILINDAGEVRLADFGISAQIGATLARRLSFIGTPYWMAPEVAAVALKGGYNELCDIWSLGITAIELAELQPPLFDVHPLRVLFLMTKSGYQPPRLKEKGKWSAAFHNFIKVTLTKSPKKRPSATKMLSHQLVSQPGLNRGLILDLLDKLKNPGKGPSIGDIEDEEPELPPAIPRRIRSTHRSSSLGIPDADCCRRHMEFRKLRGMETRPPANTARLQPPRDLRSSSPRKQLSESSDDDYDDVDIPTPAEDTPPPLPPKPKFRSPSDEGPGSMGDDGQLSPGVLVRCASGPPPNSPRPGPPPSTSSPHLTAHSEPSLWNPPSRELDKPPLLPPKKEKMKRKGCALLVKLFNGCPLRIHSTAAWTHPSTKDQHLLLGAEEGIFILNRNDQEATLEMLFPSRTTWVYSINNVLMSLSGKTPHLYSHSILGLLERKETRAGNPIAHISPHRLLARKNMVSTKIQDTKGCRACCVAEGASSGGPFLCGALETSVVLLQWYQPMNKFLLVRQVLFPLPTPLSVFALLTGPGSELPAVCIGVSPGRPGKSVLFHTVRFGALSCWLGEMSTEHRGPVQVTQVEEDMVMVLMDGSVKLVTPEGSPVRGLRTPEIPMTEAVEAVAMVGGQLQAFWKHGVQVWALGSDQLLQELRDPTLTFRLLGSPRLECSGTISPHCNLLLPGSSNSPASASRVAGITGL

For `Cc1[nH]c(/C=C2\C(=O)Nc3ccc(F)cc32)c(C)c1C(=O)NCCCN1CCN(CC(=O)NCCCCCCCCNc2cccc3c2C(=O)N(C2CCC(=O)NC2=O)C3=O)CC1` (centres unmarked) [HC58-78, (Z)—N-(3-(4-(2-((8-((2-(2,6-dioxopiperidin-3-yl)-1,3-dioxoisoindolin-4-yl)amino)octyl)amino)-2-oxoethyl)piperazin-1-yl)propyl)-5-((5-fluoro-2-oxoindolin-3-ylidene)methyl)-2,4-dimethyl-1H-pyrrole-3-carboxamide], the “endogenous level of HPK1” value on HPK1 [1] (Jurkat T cells, multiple day post exposure (FIG. 3)) is “could reduce the endogenous level of HPK1”. Also, the “reducing HPK1 protein levels” value at HPK1 [1] (characterization of exemplary degraders (FIGS. 1-14)) was “especially effective in reducing HPK1 protein levels”. The IL-2 production entry with primary GFP+ Tregs is listed as “elevated IL-2 production”. Besides, the “degradation of HPK1 protein in primary T cells compared with Jurkat T cells” value on HPK1 [2] is given as “could degrade more HPK1 protein in primary T cells than in Jurkat T cells”. In addition, the “IL-2 production compared with the DMSO-treated counterpart” value with primary murine T cells [3] is on record as “produced more IL-2 than the DMSO-treated counterpart”. The “proliferation compared with the DMSO-treated counterpart” value in the assay with primary murine T cells [4] is “proliferate much more quickly than the DMSO-treated counterpart”. In the assay with CD4+eGFP+ Tregs, the “IL-2 production by treated wild type Tregs” value is given as “produced IL-2 at level comparable to that produced by HPK1^−/− Tregs”. For the same molecule, the “percentage of human PBMCs that express high level of IFNγ and TNFα” value in the assay on human PBMCs is “significantly increased”.
